Like-named read-outs stand apart in the source and are kept apart here.
Assays:
[1] = system: HepG2 cells; details: read-out: IC50 (cytotoxicity in HepG2 cells); conventional oximes; cited from earlier work
[2] = system: HepG2 cells; assay: Intracellular RONS detection with DCFH-DA fluorescent probe; type: cell-based, human; details: IC50 concentration
Protocol: (§1) Two different fluorescent dyes, i.e., 2,7-dichlorodihydrofluorescein diacetate (DCFH-DA, Cayman Chemicals Company, Ann Arbor, MI) and dihydroethidium (DHE, Sigma-Aldrich, St. Louis, MO) were utilized for the determination of intracellular levels of RONS after 1, 4, and 24 h of incubation with tested oxime reactivators or TBHP (positive control). Cells incubated with oxime-free DMEM represented untreated control. After the incubation, the experimental medium was removed and replaced with a solution of DCFH-DA or DHE at concentrations of 20 and 5 μmol/L, respectively. The cells were subsequently incubated at 37 °C in a CO2 incubator for 45 min. Afterward, the fluorescence intensity of each well was measured using a Spark multimode microplate reader at an excitation wavelength of 485 nm for DCFH-DA or 528 nm for the DHE probe and an emission wavelength of 535 or 590 nm, respectively. Each experiment was carried out in triplicate and repeated three independent times.
(§2) The toxicological indices IC50 were calculated from control-subtracted triplicates using nonlinear regression (four parameters) using GraphPad Prism 9 software version 9.3.0 (GraphPad Software Inc., San Diego, CA). One-way analysis of variance (ANOVA) followed by Dunnetʼs multiple comparison test was used for RONS, MDA, NP-SH, and NP-SS-NP statistical analysis by GraphPad Prism 9 software, version 9.3.0. Data are expressed as means ± standard deviation (SD) of three independent measurements (n = 3). Significant differences between oxime-treated and untreated control groups (p ≤ 0.05) were marked by an asterisk (*).

[3] = system: HepG2 cells; assay: Total intracellular MDA by LC-MS/MS; type: cell-based, human; details: IC50 concentration
[4] = system: rat plasma; details: in vivo, 23 mg/kg; cited from earlier work
[5] = system: HepG2 cells; assay: Flow cytometric detection of cell death (Annexin V & Dead Cell Assay); type: cell-based, human; details: IC50 concentration
Text: 2. Flow cytometric detection of cell death
The microcapillary flow cytometry (Muse™ Cell Analyzer, Luminex, Austin, TX) was used to determine cell death.
This method is based on detecting externalization of phosphatidylserine on the surface of cells undergoing apoptosis.
The technique allows quantitative analysis of non-apoptotic, early apoptotic, late apoptotic, and necrotic cells. The reagent mixture also contains the membrane non-permeable dye 7-aminoactinomycin D. This component distinguishes necrotic and late apoptotic cells from the live and early apoptotic cells. The measurement of cell death was carried out according to manufacturer instructions after 1, 4, and 24 h incubation with tested oxime reactivators and with oxime-free medium as an untreated control. During the first day of the experiment, cells were seeded into a 24-well plate (TPP) with a density of […]. After the incubation, cells from each well were collected into the polystyrene tube (TPP) and centrifuged for 5 min at 1000 × g at room temperature. The supernatant was discarded. The cell suspensions […]
were prepared in fresh medium DMEM. Afterward 100 μL of cell suspension were mixed with the 100 μL of Muse™ Annexin V & Dead Cell Assay reagent, and the samples were incubated for 20 min at room temperature in the dark.
Per measurement, 5000 cells were analyzed. Each experiment was performed in triplicates and repeated three independent times. The concentration of K048, K074, K075, and K203 oximes and TBHP (positive control) used in […]
After 1 h of incubation (Figure S-1.) with tested oxime reactivators and TBHP as the positive control, the percentage […]
A significant change in the percentage of
The amount of early apoptotic cells
. On the other hand, the percentage of late apoptotic cells was […]
control cells. The count of late apoptotic cells enlarged by 7.74, 4.71 , 4.17, 4.13, and 3.20 %, respectively. The statistical differences were also found in the percentage of necrotic cells in this time interval. The highest increment […]
K048, K074, K075, and K203 groups when compared with control.
K075, and K203 treated groups, respectively, when compared with control. Finally, the percentage of necrotic cells […]
Fig. S-1 The percentage of intact (white column), early (light grey column), late apoptotic (dark grey column), and necrotic HepG2 cells (black column) determined using microcapillary flow cytometry after 1 h, 4 h and 24 h treatment with oxime acetylcholinesterase reactivators or TBHP (positive control). Control represents the cells incubated with an oxime-free culture medium. One-way analysis of variance (ANOVA) followed by Dunnetʼs multiple comparison test was used for statistical analysis by GraphPad Prism 9 software version 9.3.0. Data are expressed as means ± standard deviation (SD) of three independent measurements (n = 3). Significant differences between oxime-treated and untreated control groups (p ≤ 0.05) and marked by asterisk (*).
3. Stability of oximes in DMEM medium at 37 °C over 24 hours
The stability of oximes K048, K074, K075, and K203 in DMEM medium, with concentrations corresponding to their […]
UV, following the chromatographic conditions described by Vanova et al. (2021)13. The results over the tested time […]
Fig. S-2 Data are expressed in percentage as means ± standard deviation (SD) of three independent measurements […]

[6] = system: HepG2 cells; details: from 15 min after simultaneous incubation with TBHP (IC50 concentration); oximes about 10-fold below IC50; cited from earlier work
[7] = system: HepG2 cells; assay: Colorimetric MTT cell viability assay, 24 h; details: read-out: IC50 (cytotoxicity, MTT assay), 24 h incubation
[8] = system: HepG2 cells; assay: Intracellular RONS detection with DHE fluorescent probe; type: cell-based, human; details: IC50 concentration; for increase of free radicals/RONS (DHE probe) vs negative control: 1 h incubation
Protocol: as §1, §2

[9] = system: HepG2 cells; assay: Intracellular nonprotein thiols (NP-SH) by HPLC-UV; type: cell-based, human; details: IC50 concentration
Protocol: (§3) The culture medium was removed from a 25 cm^2 culture flask on the day of the experiment, and cells were washed twice with 3 mL of phosphate-buffered saline (PBS; GE Healthcare Life Sciences, South Logan, UT). Subsequently, 3 mL of a plain DMEM medium (negative control) and a DMEM medium containing TBHP (positive control) or individual oximes were added to each flask, and cells were incubated for 1, 4, and 24 h. The concentration of individual oxime and TBHP in the DMEM medium corresponded to the IC50 value. After incubation, the experimental medium was removed, and cells were washed with 3 mL of PBS and harvested by scraping. The resulting suspension was centrifuged at 220g and 21 °C for 5 min (Universal 320R centrifuge, Hettich, Tuttlingen, Germany). The supernatant was removed and dried cell pellets were stored at −80 °C. Each experiment was carried out in three independent replicates.
(§4) The cell pellets were thawed at room temperature, resuspended in 500 μL of ultrapure water (Millipore Purification System, Merck, Millipore, Darmstadt, Germany), and sonicated for 2 min (2 s cycle, amplitude 20%) in a Q500 homogenizer (QSONICA Sonicators, Newton). Then, the homogenate was divided into three parts: 250 μL for the determination of malondialdehyde (MDA), 100 μL for each determination of nonprotein thiols (NP-SH) and disulfides (NP-SS-NP), and 10 μL for the Bradford protein assay.
(§5) The HepG2 cell homogenate obtained, as described in Section 2.6, was processed for the determination of intracellular NP-SH and NP-SS-NP, according to Muckova et al.[11] The samples were analyzed using the HPLC system described above equipped with an SPD 20-AV Prominence UV/vis detector. The analysis was carried out on a Phenomenex LUNA C18 column (150 mm × 3 mm, 3 μm, 100 Å) protected with a Security Cartridge (4 mm × 2 mm, Phenomenex, Torrance) at 30 °C and a constant flow rate of 0.330 mL/using the mobile phase consisting of 0.9% aqueous FA (A) and ACN (B) under gradient conditions: 0–1 min 12% B, 1.1–2 min 12–55% B, 2–7 min 55% B, 7.1 min 55% B, and 7.1–10 min 12% B. The detector was set at 326 nm and the sample injection volume was 20 μL.

[10] = system: HepG2 cells; assay: Intracellular nonprotein disulfides (NP-SS-NP) by HPLC-UV; type: cell-based, human; details: IC50 concentration
Protocol: as §3, §4, §5

[11] = Colorimetric MTT cell viability assay, 24 h; details: human, HepG2 cells, IC50 (cytotoxicity, MTT assay), 24 h incubation

## NC(=O)c1cc[n+](COC[n+]2ccccc2/C=N/O)cc1 [HI-6, asoxime]
[1]
  IC50: ~3 mM

## NC(=O)c1cc[n+](C/C=C/C[n+]2ccc(C=NO)cc2)cc1.[Br-].[Br-] [K203, 4-carbamoyl-1-((2E)-4-(4-((hydroxyimino)methyl)pyridin-1-ium-1-yl)but-2-en-1-yl)pyridin-1-ium dibromide]
[2]; 1 h incubation
  increase of RONS (DCFH-DA probe) vs negative control: 39.2%
[2]; 4 h incubation
  increase of RONS (DCFH-DA probe) vs negative control: 39.2%
[2]; 24 h incubation
  increase of RONS (DCFH-DA probe) vs negative control: 22.8%
[3]; within the 24 h time frame
  resulting MDA levels (in words): insignificant
[4]
  low-molecular-weight antioxidants (LMWAs) in plasma: increase
[5]; 1 h
  decrease in percentage of intact (live) cells vs control: ~8.43%
  increase in early apoptotic cells vs control: ~1.51%
  increase in late apoptotic cells vs control: 4.13%
[5]; 4 h
  decrease in percentage of live cells vs control: 8.8%
  increase in late apoptotic cells vs control: 4.24%
  increase in necrotic cell population vs control: 1.74%
[5]; 24 h
  decrease in percentage of intact cells vs control: 46.6%
  increase in early apoptotic cells vs control: 13.3%
  increase in late apoptotic cells vs control: 32.9%
[6]
  reduction of ROS production: 98%
[7]
  IC50: 2.05 mM
[8]
  increase of free radicals/RONS (DHE probe) vs negative control: 8.5%
[8]; 24 h incubation
  increase of RONS (DHE probe) vs negative control: 22.1%
[9]; 1 h
  decrease in NP-SH levels vs untreated control: 17.4%
[9]; 24 h
  decrease in NP-SH levels vs untreated control: 12.1%
[10]; within the 24 h time frame
  resulting NP-SS-NP levels (in words): insignificant

## O/N=C/c1cc[n+](COC[n+]2ccc(/C=N/O)cc2)cc1 [LüH-6, obidoxime]
[1]
  IC50: ~4 mM

## O/N=C/c1cc[n+](C[n+]2ccc(/C=N/O)cc2)cc1 [MMB-4, methoxime]
[1]
  IC50: ~1 mM

## CC(C)(C)OO [TBHP, tert-butyl hydroperoxide, reference compound]
[2]; 1 h incubation
  increase of RONS (DCFH-DA probe) vs negative control: 16.7%
[2]; 24 h incubation
  decrease of RONS (DCFH-DA probe) vs negative control: 47.6%
[3]; 4 h incubation
  increase of MDA levels vs untreated control: 36.1%
[3]; 24 h exposure
  increase of MDA levels vs untreated control: 96.6%
[5]; 1 h
  decrease in percentage of intact (live) cells vs control: ~11.6%
  increase in late apoptotic cells vs control: 7.74%
  increase in necrotic cells vs control: 3.24%
[5]; 4 h
  decrease in percentage of live cells vs control: 14.6%
  increase in early apoptotic cells vs control: 1.02%
  increase in late apoptotic cells vs control: 9.79%
  increase in necrotic cell population vs control: 3.77%
[5]; 24 h
  decrease in percentage of intact cells vs control: 42.7%
  increase in early apoptotic cells vs control: 7.42%
  increase in late apoptotic cells vs control: 31.6%
  increase in necrotic cells vs control: 3.66%
[11]
  IC50 at 24 h: 0.13 mM
[8]
  increase of free radicals/RONS (DHE probe) vs negative control: 30.7%
[8]; 4 h incubation
  increase of RONS (DHE probe) vs negative control: 111%
[9]; 1 h
  decrease in NP-SH levels vs untreated control: 24.6%
[9]; 4 h
  decrease in NP-SH levels vs untreated control: 45.0%
[9]; 24 h
  decrease in NP-SH levels vs untreated control: 53.1%
[10]; 1 h
  increase in NP-SS-NP levels vs untreated control: 69.6%
[10]; 4 h
  increase in NP-SS-NP levels vs untreated control: 119%
[10]; 24 h
  increase in NP-SS-NP levels vs untreated control: 166%

## O/N=C/c1cc[n+](CCC[n+]2ccc(/C=N/O)cc2)cc1 [TMB-4, trimedoxime]
[1]
  IC50: ~22 mM

## N[C@@H](CCC(=O)N[C@@H](CS)C(=O)NCC(=O)O)C(=O)O [reduced glutathione, glutathione, reference compound]
[6]
  reduction of ROS production: 87%

— article PMC10731658 (Chemical Research in Toxicology, 2023)
